Results from patent publication US20240246977A1, “DEGRADATION OF BRUTON'S TYROSINE KINASE (BTK) BY CONJUGATION OF BTK INHIBITORS WITH E3 LIGASE LIGAND AND METHOD OF USE” (BeiGene Switzerland GmbH, priority 2021, published 2024).

Legend:
[1] = system: HEK-293 cells; experiment: HEK-293 cytotoxicity detection (CellTiter-Glo); type: cell-based; conditions: Homo sapiens, 72 h, 72 h incubation, CellTiter-Glo luminescence, read-out: HEK293
In short: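 HEK-293 cells exposed 72 h to 8 compounds doses (4-fold dilutions, top stock 5 mM at 500×) in 0.2% DMSO. Viability by CellTiter-Glo luminescence; inhibition normalised to DMSO high control and low control, IC50 from four-parameter curve fit.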

[2] = target: BTK (Homo sapiens, UniProt Q06187); experiment: BTK cell degradation in TMD-8 cells, HTRF assay; type: cell-based; parameters: endogenous in cells; host or cells: TMD-8 cells; conditions: 6 h treatment, IC50 (DC50) of BTK degradation
In short: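 TMD-8 cells treated 6 h with 8-dose series (6-fold dilutions, 0.2% DMSO final), then lysed and BTK quantified by HTRF (337/665/620 nm) after overnight antibody incubation at room temperature. Degradation normalized to DMSO high and low controls; DC50 and Dmax from four-parameter fit.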

Chain of BTK (Q06187 whole entry): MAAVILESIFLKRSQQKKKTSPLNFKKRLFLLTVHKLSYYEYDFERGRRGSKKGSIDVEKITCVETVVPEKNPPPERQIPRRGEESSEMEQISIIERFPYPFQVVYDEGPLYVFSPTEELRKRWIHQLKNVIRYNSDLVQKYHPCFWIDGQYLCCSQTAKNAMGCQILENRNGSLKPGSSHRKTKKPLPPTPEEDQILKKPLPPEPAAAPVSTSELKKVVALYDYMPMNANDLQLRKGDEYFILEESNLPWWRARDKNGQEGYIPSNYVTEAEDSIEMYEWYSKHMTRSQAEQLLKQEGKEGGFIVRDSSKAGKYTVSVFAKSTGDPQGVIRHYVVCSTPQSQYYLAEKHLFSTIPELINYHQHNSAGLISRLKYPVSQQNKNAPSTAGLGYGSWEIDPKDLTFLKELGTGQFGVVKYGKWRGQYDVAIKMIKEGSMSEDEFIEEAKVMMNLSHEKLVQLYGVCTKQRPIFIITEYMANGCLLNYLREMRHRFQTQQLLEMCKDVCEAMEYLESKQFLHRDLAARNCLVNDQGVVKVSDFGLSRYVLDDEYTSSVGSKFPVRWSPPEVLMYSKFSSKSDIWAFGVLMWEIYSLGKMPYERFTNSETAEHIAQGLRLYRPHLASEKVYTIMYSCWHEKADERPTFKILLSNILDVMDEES

DC50 [2] [nM]	SMILES	IC50 [1] [nM]
22.7	Cc1cc(-c2nn3c(c2C(N)=O)Nc2ccc(N4CCN(CC5CCN(c6ccc(N7CCC(=O)NC7=O)cc6)CC5)CC4)cc2CC3)ccc1CNC(=O)c1noc(C(C)(C)C)n1 [Example C7, 5-(tert-butyl)-N-(4-(3-carbamoyl-7-(4-((1-(4-(2,4-dioxotetrahydropyrimidin-1(2H)-yl)phenyl)piperidin-4-yl)methyl)piperazin-1-yl)-9,10-dihydro-4H-benzo[d]pyrazolo[1,5-a][1,3]diazepin-2-yl)-2-methylbenzyl)-1,2,4-oxadiazole-3-carboxamide]	> 10000
0.956	COc1ccc2ccccc2c1C(=O)NCc1ccc(-c2nn3c(c2C(N)=O)Nc2ccc(N4CCN(CC5CCN(c6ccc(N7CCC(=O)NC7=O)cc6)CC5)CC4)cc2CC3)cc1F [Example C20, 7-(4-((1-(4-(2,4-dioxotetrahydropyrimidin-1(2H)-yl)phenyl)piperidin-4-yl)methyl)piperazin-1-yl)-2-(3-fluoro-4-((2-methoxy-1-naphthamido)methyl)phenyl)-9,10-dihydro-4H-benzo[d]pyrazolo[1,5-a][1,3]diazepine-3-carboxamide]	> 10000
0.848	COc1ccccc1C(=O)NCc1ccc(-c2nn3c(c2C(N)=O)Nc2ccc(N4CCN(CC5CCN(c6ccc(N7CCC(=O)NC7=O)cc6)CC5)CC4)cc2CC3)cc1F [Example C19, 7-(4-((1-(4-(2,4-dioxotetrahydropyrimidin-1(2H)-yl)phenyl)piperidin-4-yl)methyl)piperazin-1-yl)-2-(3-fluoro-4-((2-methoxybenzamido)methyl)phenyl)-9,10-dihydro-4H-benzo[d]pyrazolo[1,5-a][1,3]diazepine-3-carboxamide]	142
2	COc1ccc(C(=O)NCc2ccc(-c3nn4c(c3C(N)=O)Nc3ccc(N5CCN(CC6CCN(c7ccc(N8CCC(=O)NC8=O)cc7)CC6)CC5)cc3CC4)cc2)c(OC)c1 [Example C23, 2-(4-((2,4-dimethoxybenzamido)methyl)phenyl)-7-(4-((1-(4-(2,4-dioxotetrahydropyrimidin-1(2H)-yl)phenyl)piperidin-4-yl)methyl)piperazin-1-yl)-9,10-dihydro-4H-benzo[d]pyrazolo[1,5-a][1,3]diazepine-3-carboxamide]	> 10000
0.611	COc1ccc(F)c(F)c1C(=O)NCc1ccc(-c2nn3c(c2C(N)=O)Nc2ccc(N4CCN(CC5CCN(c6ccc(N7CCC(=O)NC7=O)cc6)CC5)CC4)cc2CC3)cc1 [Example C25, 2-(4-((2,3-difluoro-6-methoxybenzamido)methyl)phenyl)-7-(4-((1-(4-(2,4-dioxotetrahydropyrimidin-1(2H)-yl)phenyl)piperidin-4-yl)methyl)piperazin-1-yl)-9,10-dihydro-4H-benzo[d]pyrazolo[1,5-a] [1,3]diazepine-3-carboxamide]	> 10000
1.82	CC(C)(C)c1noc(C(=O)NCc2ccc(-c3nn4c(c3C(N)=O)Nc3ccc(N5CCN(CC6CCN(c7ccc(N8CCC(=O)NC8=O)cc7)CC6)CC5)cc3CC4)cc2)n1 [Example C12, 3-(tert-butyl)-N-(4-(3-carbamoyl-7-(4-((1-(4-(2,4-dioxotetrahydropyrimidin-1(2H)-yl)phenyl)piperidin-4-yl)methyl)piperazin-1-yl)-9,10-dihydro-4H-benzo[d]pyrazolo[1,5-a][1,3]diazepin-2-yl)benzyl)-1,2,4-oxadiazole-5-carboxamide]	> 10000
0.786	COc1cc(F)c(F)cc1C(=O)NCc1ccc(-c2nn3c(c2C(N)=O)Nc2ccc(N4CCN(CC5CCN(c6ccc(N7CCC(=O)NC7=O)cc6)CC5)CC4)cc2CC3)cc1 [Example C30, 2-(4-((4,5-difluoro-2-methoxybenzamido)methyl)phenyl)-7-(4-((1-(4-(2,4-dioxotetrahydropyrimidin-1(2H)-yl)phenyl)piperidin-4-yl)methyl)piperazin-1-yl)-9,10-dihydro-4H-benzo[d]pyrazolo[1,5-a][1,3]diazepine-3-carboxamide]	> 10000

Further lines, the compound ahead of its results:

SMILES	DC50 [2] [nM]	IC50 [1] [nM]
NC(=O)c1c(-c2ccc(C(=O)Nc3cc(C(F)(F)F)ccn3)cc2F)nn2c1Nc1ccc(N3CCN(CC4CCN(c5ccc(N6CCC(=O)NC6=O)cc5)CC4)CC3)cc1CC2 [Example B2, 7-(4-((1-(4-(2,4-dioxotetrahydropyrimidin-1(2H)-yl)phenyl)piperidin-4-yl)methyl)piperazin-1-yl)-2-(2-fluoro-4-((4-(trifluoromethyl)pyridin-2-yl)carbamoyl)phenyl)-9,10-dihydro-4H-benzo[d]pyrazolo[1,5-a][1,3]diazepine-3-carboxamide]	0.842	> 10000
COc1ccnc(NC(=O)c2ccc(-c3nn4c(c3C(N)=O)Nc3ccc(N5CCN(CC6CCN(c7ccc(N8CCC(=O)NC8=O)cc7)CC6)CC5)cc3CC4)cc2)c1 [Example B9, 7-(4-((1-(4-(2,4-dioxotetrahydropyrimidin-1(2H)-yl)phenyl)piperidin-4-yl)methyl)piperazin-1-yl)-2-(4-((4-methoxypyridin-2-yl)carbamoyl)phenyl)-9,10-dihydro-4H-benzo[d]pyrazolo[1,5-a][1,3]diazepine-3-carboxamide]	6.14	> 10000
Cc1c(C(=O)Nc2cscn2)ccc(-c2nn3c(c2C(N)=O)Nc2ccc(N4CCN(CC5CCN(c6ccc(N7CCC(=O)NC7=O)cc6)CC5)CC4)cc2CC3)c1F [Example B94, 7-(4-((1-(4-(2,4-dioxotetrahydropyrimidin-1(2H)-yl)phenyl)piperidin-4-yl)methyl)piperazin-1-yl)-2-(2-fluoro-3-methyl-4-(thiazol-4-ylcarbamoyl)phenyl)-9,10-dihydro-4H-benzo[d]pyrazolo[1,5-a][1,3]diazepine-3-carboxamide]	0.378	> 10000
Cc1c(C(=O)Nc2cscn2)ccc(-c2nn3c(c2C(N)=O)Nc2ccc(N4CCN(C5CC(c6ccc(N[C@H]7CCC(=O)NC7=O)cc6)C5)CC4)cc2CC3)c1F (stereo partly drawn) [Example B101, (S)-7-(4-(3-(4-((2,6-dioxopiperidin-3-yl)amino)phenyl)cyclobutyl)piperazin-1-yl)-2-(2-fluoro-3-methyl-4-(thiazol-4-ylcarbamoyl)phenyl)-9,10-dihydro-4H-benzo[d]pyrazolo[1,5-a][1,3]diazepine-3-carboxamide]	2.42	32.3
Cc1c(C(=O)Nc2cc(C)n(C)n2)ccc(-c2nn3c(c2C(N)=O)Nc2ccc(N4CCN(CC5CCN(c6ccc(N7CCC(=O)NC7=O)cc6)CC5)CC4)cc2CC3)c1F [Example B86, 2-(4-((1,5-dimethyl-1H-pyrazol-3-yl)carbamoyl)-2-fluoro-3-methylphenyl)-7-(4-((1-(4-(2,4-dioxotetrahydropyrimidin-1(2H)-yl)phenyl)piperidin-4-yl)methyl)piperazin-1-yl)-9,10-dihydro-4H-benzo[d]pyrazolo[1,5-a][1,3]diazepine-3-carboxamide]	4.37	> 10000
Cc1cccc(NC(=O)c2ccc(-c3nn4c(c3C(N)=O)Nc3ccc(N5CCN(CC6CCN(c7cc8c(cc7F)CN(C7CCC(=O)NC7=O)C8=O)CC6)CC5)cc3CC4)c(F)c2C)n1 (stereo not shown) [Example B56, 7-(4-((1-(2-(2,6-dioxopiperidin-3-yl)-6-fluoro-3-oxoisoindolin-5-yl)piperidin-4-yl)methyl)piperazin-1-yl)-2-(2-fluoro-3-methyl-4-((6-methylpyridin-2-yl)carbamoyl)phenyl)-9,10-dihydro-4H-benzo[d]pyrazolo[1,5-a][1,3]diazepine-3-carboxamide]	4.31	> 10000
Cc1c(C(=O)Nc2cn(C)cn2)ccc(-c2nn3c(c2C(N)=O)Nc2ccc(N4CCN(CC5CCN(c6ccc(N7CCC(=O)NC7=O)cc6)CC5)CC4)cc2CC3)c1F [Example B87, 7-(4-((1-(4-(2,4-dioxotetrahydropyrimidin-1(2H)-yl)phenyl)piperidin-4-yl)methyl)piperazin-1-yl)-2-(2-fluoro-3-methyl-4-((1-methyl-1H-imidazol-4-yl)carbamoyl)phenyl)-9,10-dihydro-4H-benzo[d]pyrazolo[1,5-a][1,3]diazepine-3-carboxamide]	0.591	> 10000
Cc1c(C(=O)Nc2nccs2)ccc(-c2nn3c(c2C(N)=O)Nc2ccc(N4CCN(CC5CCN(c6ccc(N7CCC(=O)NC7=O)cc6)CC5)CC4)cc2CC3)c1F [Example B83, 7-(4-((1-(4-(2,4-dioxotetrahydropyrimidin-1(2H)-yl)phenyl)piperidin-4-yl)methyl)piperazin-1-yl)-2-(2-fluoro-3-methyl-4-(thiazol-2-ylcarbamoyl)phenyl)-9,10-dihydro-4H-benzo[d]pyrazolo[1,5-a][1,3]diazepine-3-carboxamide]	2.9	> 10000
Cc1cccc(NC(=O)c2cnc(-c3nn4c(c3C(N)=O)Nc3ccc(N5CCN(CCc6cc(F)c(C7CCC(=O)NC7=O)c(F)c6)CC5)cc3CC4)cc2C)n1 (stereo not shown) [Example B37, 7-(4-(4-(2,6-dioxopiperidin-3-yl)-3,5-difluorophenethyl)piperazin-1-yl)-2-(4-methyl-5-((6-methylpyridin-2-yl)carbamoyl)pyridin-2-yl)-9,10-dihydro-4H-benzo[d]pyrazolo[1,5-a][1,3]diazepine-3-carboxamide]	15.2	> 10000
NC(=O)c1c(-c2ccc(Oc3ccccc3)cc2)nn2c1Nc1ccc(C(=O)N3CCN(CC4CCN(c5ccc6c(c5)C(=O)N(C5CCC(=O)NC5=O)C6=O)CC4)CC3)cc1CC2 (stereo not shown) [Example A13, 7-(4-((1-(2-(2,6-dioxopiperidin-3-yl)-1,3-dioxoisoindolin-5-yl)piperidin-4-yl)methyl)piperazine-1-carbonyl)-2-(4-phenoxyphenyl)-9,10-dihydro-4H-benzo[d]pyrazolo[1,5-a][1,3]diazepine-3-carboxamide]	2.79	167
